{
  "source": "patent US8207330B2",
  "about": "“Two-photon absorption material and application thereof” (Ricoh Company, Ltd., priority 2008, dated 2012)",
  "data": [
    {"assay": "Two-photon absorption cross-sectional area, Z scan method, Examples B", "type": "physicochemical", "conditions": "tetrahydrofuran solution, femtosecond laser, 780 nm to 960 nm (710 nm to 990 nm)", "experimental": "Each of Compounds (1), (2), (57), (58), (59), (60), (3), (4), (61), (62), (25), (26), (63), (64), (65), (66), (45), (67), (68), (69), (70), (71), (72), (5), (9), (13), (19), (27), (31), (32), (34), (36), (39), (44), (53) and (55) was dissolved in tetrahydrofuran, and the resultant tetrahydrofuran solution was measured for its two-photon absorption cross-sectional area according to the below-described evaluation method therefor.\nThis measurement was performed under the following conditions:\nSample concentration: 10^−2 mol to 10^−5 mol (this range covering optimal concentrations of the samples (at which measurements are easily performed));\nLight path length of cell: 10 mm (corresponding to the inner diameter of cuvette);\nLight: variable femtosecond laser having a wavelength of 710 nm to 990 nm; and\nLight power: 10 mW to 800 mW.\nThe following compound (73) was dissolved in tetrahydrofuran, and the resultant solution was measured for its two-photon absorption cross-sectional area according to the below-described evaluation method therefor.\nThe following compound (74) was dissolved in tetrahydrofuran, and the resultant solution was measured for its two-photon absorption cross-sectional area according to the below-described evaluation method therefor.\n[drawing 68] [Method for Measuring Two-Photon Absorption Cross-Sectional Area]\nFIG. 8 schematically illustrates a system of the method.\nMeasuring light source: femtosecond titanium sapphire laser\nRepetition frequency: 80 MHz\nMeasuring method: Z scan method\nInner diameter of cuvette: 10 mm\nLight power for measurement: about 500 mW\nCollection diameter: 40 μm to 50 μm\nA quartz cell filled with each sample solution was placed in a light path through which a focused laser beam was passed. Then, the cell was moved along the light path for Z-scan measurement.\nThe sample solution was measured for its transmittance, and the thus-obtained value and the following theoretical equation (I) were used to determine a nonlinear absorption coefficient of the sample. T=[ln(1+I0L0β)]/I0L0β (I)\nwhere T denotes a transmittance (%), I0 denotes an excited light density [GW/cm^2], L0 denotes a sample cell length [cm], and β denotes a nonlinear absorption coefficient [cm/GW].\nThe thus-determined nonlinear absorption coefficient and the following equation (ii) were used to calculate a two-photon absorption cross-sectional area σ. Note that the unit of σ is GM (1 GM=1×10^−50 cm^4·s·photon^−1). σ=1,000×hvβ/[…] (ii)\nwhere h denotes the Planck's constant [J·s], v denotes a frequency of an incident laser beam [s^−1], NA denotes the Avogadoro's number, and C denotes a concentration of a solution [mol/L].", "values": [
      {"smiles": "CC1=C(C)c2nc1c(-c1ccc(C#N)cc1)c1[nH]c(c(C)c1C)c(-c1ccc(/C=C/c3ccc(N(c4ccccc4)c4ccc(C)cc4)cc3)cc1)c1nc(c(-c3ccc(C#N)cc3)c3[nH]c(c(C)c3C)c2-c2ccc(/C=C/c3ccc(N(c4ccccc4)c4ccc(C)cc4)cc3)cc2)C(C)=C1C", "note": "[(5)]", "Two-photon absorption cross-sectional area": "980 GM"},
      {"smiles": "CN(C)c1ccc(/C=C/C2=c3ccc4[n]3[Zn][n]3c(ccc3C(c3ccccn3)=C3C=CC2=N3)C(c2ccc(/C=C/c3ccc(N(c5ccccc5)c5ccccc5)cc3)cc2)=C2C=CC(=N2)C=4c2ccccn2)cc1", "note": "[(13)]", "Two-photon absorption cross-sectional area": "1,030 GM"},
      {"smiles": "CCCCCCc1ccc(N(c2ccc(-c3c4nc(c(-c5c(C)cc(C)cc5C)c5[nH]c(cc6nc(c(-c7c(C)cc(C)cc7C)c7[nH]c3c(CC)c7C)C(C)=C6CC)c(CC)c5C)C(C)=C4CC)cc2)c2ccc(-c3c4nc(c(-c5c(C)cc(C)cc5C)c5[nH]c(cc6nc(c(-c7c(C)cc(C)cc7C)c7[nH]c3c(CC)c7C)C(C)=C6CC)c(CC)c5C)C(C)=C4CC)cc2)cc1", "note": "[(25)]", "Two-photon absorption cross-sectional area": "860 GM"},
      {"smiles": "CCCCCCc1ccc(N(c2ccc(C3=C4N=C(C(C)=C4CC)C(c4c(C)cc(C)cc4C)=c4c(C)c(CC)c5[n]4[Zn][n]4c(c(C)c(CC)c43)C(c3c(C)cc(C)cc3C)=C3N=C(C=5)C(CC)=C3C)cc2)c2ccc(C3=c4c(CC)c(C)c5[n]4[Zn][n]4c(c(CC)c(C)c4C(c4c(C)cc(C)cc4C)=C4N=C3C(CC)=C4C)C=C3N=C(C(C)=C3CC)C=5c3c(C)cc(C)cc3C)cc2)cc1", "note": "[(26)]", "Two-photon absorption cross-sectional area": "1,120 GM"},
      {"smiles": "CCC1=C(CC)c2nc1c(Br)c1[nH]c(c(CC)c1CC)c(-c1ccc([N+](=O)[O-])cc1)c1nc(c(-c3ccc4c(c3)C(C)(C)c3cc(-c5c6nc(c(-c7ccc([N+](=O)[O-])cc7)c7[nH]c(c(Br)c8nc(c(-c9ccc([N+](=O)[O-])cc9)c9[nH]c5c(CC)c9CC)C(CC)=C8CC)c(CC)c7CC)C(CC)=C6CC)ccc3-4)c3[nH]c(c(CC)c3CC)c2-c2ccc([N+](=O)[O-])cc2)C(CC)=C1CC", "note": "[(27)]", "Two-photon absorption cross-sectional area": "810 GM"},
      {"smiles": "CCCCCCc1ccc(N(c2ccc(C3=C4C=CC(=N4)C(c4ccccc4C)=c4ccc5[n]4[Pd][n]4c3ccc4C(c3ccccc3C)=C3C=CC(=N3)C=5c3ccc(/C=C/c4ccc(N(c5ccccc5)c5ccccc5)cc4)cc3)cc2)c2ccc(C3=c4ccc5[n]4[Pd][n]4c(ccc4C(c4ccccc4C)=C4C=CC3=N4)C=C3C=CC(=N3)C=5c3ccccc3C)cc2)cc1", "note": "[(31)]", "Two-photon absorption cross-sectional area": "890 GM"},
      {"smiles": "CCC1=C(C)C2=NC1=Cc1c(CC)c(C)c3[n]1[Ni][n]1c(c(C)c(CC)c1=C(c1ccc(N(c4ccccc4)c4ccc(C5=C6N=C(C(C)=C6CC)C(c6ccncc6)=c6c(C)c(CC)c7[n]6[Ni][n]6c(c(C)c(CC)c65)C(c5ccncc5)=C5N=C(C(CC)=C5C)C=7/C=C/c5ccc(N(c6ccccc6)c6ccccc6)cc5)cc4)cc1)C1=NC(=C3c3ccncc3)C(C)=C1CC)=C2c1ccncc1", "note": "[(32)]", "Two-photon absorption cross-sectional area": "900 GM"},
      {"smiles": "CCCCC(CC)COc1ccc(N(c2ccc(C3=C4N=C(C(C)=C4CC)C(c4ccccc4C(=O)OC)=c4c(C)c(CC)c5[n]4[Zn][n]4c(c(C)c(CC)c43)C(c3ccccc3C(=O)OC)=C3N=C(C=5)C(CC)=C3C)cc2)c2ccc(C3=c4c(CC)c(C)c5[n]4[Zn][n]4c(c(CC)c(C)c4C(c4ccccc4C(=O)OC)=C4N=C3C(CC)=C4C)C=C3N=C(C(C)=C3CC)C=5c3ccccc3C(=O)OC)cc2)cc1", "note": "(stereo not drawn) [(34)]", "Two-photon absorption cross-sectional area": "1,010 GM"},
      {"smiles": "CCCCCCc1ccc(N(c2ccc(C3=C4C(C(=O)OC)=CC5=[N+]4[Co@]46[n]7c(cc(C(=O)OC)c73)C(c3ccc([N+](=O)[O-])cc3)=C3C=C(C(=O)OC)C(=[N+]34)C=c3c(C(=O)OC)cc([n]36)=C5c3ccc([N+](=O)[O-])cc3)cc2)c2ccc(C3=c4c(C(=O)OC)cc5[n]4[Co@]46[n]7c(cc(C(=O)OC)c7C=C7C(C(=O)OC)=CC(=[N+]74)C=5c4ccc([N+](=O)[O-])cc4)C(c4ccc([N+](=O)[O-])cc4)=C4C=C(C(=O)OC)C3=[N+]46)cc2)cc1", "note": "[(36)]", "Two-photon absorption cross-sectional area": "860 GM"}
    ]}
  ]
}
